Measured values taken from ChEMBL document CHEMBL1201862, “PubChem BioAssay data set” (2004).
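Dose response: 5 concentrations. Exposure: 48 h. Format: 96-well plates. Endpoint: linear interpolation; highest concentration if not reached. The concentration for 50% growth inhibition is given as GI50.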 The source made the active and inactive calls. No stated cut-off is given here; in the data, active = GI50 up to about 1.1 µM and inactive = higher.

Columns and labels:
Experiment in all cases: inhibition of tumour cell growth, NCI panel, 48 h
[1] = system: HCT-116
[2] = system: HOP-62
[3] = system: UACC-62
[4] = system: A549
[5] = system: 786-0
[6] = system: KM12
[7] = system: RPMI-8226
[8] = system: Malme-3M
[9] = system: SF-295
[10] = system: EKVX
[11] = system: U-251
[12] = system: MDA-MB-231
[13] = system: MDA-N
[14] = system: SK-MEL-2
[15] = system: TK-10
[16] = system: SF-539
[17] = system: MDA-MB-435
[18] = system: SR
[19] = system: MOLT-4
[20] = system: A498

Measured: GI50

O=C1c2cc([N+](=O)[O-])cnc2S(=O)(=O)N1c1ccc(Br)cc1
inactive: [1] > 100 µM | [2] > 100 µM | [3] > 100 µM | [4] > 100 µM | [5] > 100 µM | [6] > 100 µM | [7] > 100 µM | [8] > 100 µM | [9] > 100 µM | [10] > 100 µM | [11] > 100 µM | [12] > 100 µM | [13] > 100 µM | [14] > 100 µM | [15] > 100 µM | [16] > 100 µM | [17] > 100 µM | [18] > 100 µM | [19] > 100 µM

c1ccc2[nH]c(C3CCCCO3)nc2c1 (configuration not stated)
inactive: [1] > 100 µM | [2] > 100 µM | [3] > 100 µM | [4] > 100 µM | [5] > 100 µM | [6] 50.4 µM | [7] > 100 µM | [8] > 100 µM | [9] > 100 µM | [10] > 100 µM | [11] > 100 µM | [12] > 100 µM | [13] > 100 µM | [14] > 100 µM | [15] > 100 µM | [16] > 100 µM | [17] > 100 µM | [18] > 100 µM | [19] > 100 µM

CNC(=O)c1ccccc1[S+]1c2cccc3cccc(c23)C(=O)N1C (configuration not stated)
inactive: [1] > 100 µM | [2] > 100 µM | [3] > 100 µM | [4] > 100 µM | [5] > 100 µM | [6] > 100 µM | [20] > 100 µM | [7] > 100 µM | [8] > 100 µM | [9] > 100 µM | [10] > 100 µM | [11] > 100 µM | [12] > 100 µM | [13] > 100 µM | [14] > 100 µM | [15] > 100 µM | [16] > 100 µM | [17] > 100 µM | [19] > 100 µM

Nc1ncnc2c1nnn2C1CCC(CP(=O)(O)O)C1 (configuration not stated)
inactive: [1] > 100 µM | [2] > 100 µM | [3] > 100 µM | [4] > 100 µM | [5] > 100 µM | [6] > 100 µM | [7] > 100 µM | [8] > 100 µM | [9] > 100 µM | [10] > 100 µM | [11] > 100 µM | [12] > 100 µM | [13] > 100 µM | [14] > 100 µM | [15] > 100 µM | [16] > 100 µM | [17] > 100 µM | [18] > 100 µM | [19] > 100 µM

Cc1cccc2c1Oc1cc(Cl)ccc1C2NC(=O)CCN1CCCCC1 (configuration not stated)
inactive: [1] 15.9 µM | [2] 14.3 µM | [3] 14.7 µM | [4] 18.7 µM | [5] 14.8 µM | [6] 16.3 µM | [7] 25 µM | [9] 18.8 µM | [10] 20.7 µM | [11] 15.6 µM | [12] 20.6 µM | [13] 16.3 µM | [15] 15.8 µM | [16] 16.7 µM | [17] 16 µM | [18] 16.2 µM | [19] 16.1 µM

Cc1[nH]n(-c2nc(O)c(C)c(=O)[nH]2)c(=O)c1CCO
inactive: [1] > 100 µM | [3] > 100 µM | [4] > 100 µM | [5] > 100 µM | [6] > 100 µM | [20] > 100 µM | [7] > 100 µM | [8] > 100 µM | [9] > 100 µM | [10] > 100 µM | [11] > 100 µM | [12] > 100 µM | [13] > 100 µM | [14] > 100 µM | [15] > 100 µM | [16] > 100 µM | [17] > 100 µM | [19] > 100 µM

CN1CCC2(CC1)C(=O)N(NC(N)=O)C(=O)C2c1ccccc1 (configuration not stated)
inactive: [1] > 100 µM | [2] > 100 µM | [3] > 100 µM | [4] > 100 µM | [5] > 100 µM | [6] > 100 µM | [7] > 100 µM | [8] > 100 µM | [9] > 100 µM | [10] > 100 µM | [11] > 100 µM | [12] > 100 µM | [13] > 100 µM | [14] > 100 µM | [15] > 100 µM | [16] > 100 µM | [17] > 100 µM | [19] > 100 µM

S=C1CC(c2ccccc2)Sc2ccc(Cl)cc2N1 (configuration not stated)
inactive: [1] 21.2 µM | [2] 45.6 µM | [3] 48.1 µM | [4] 34.8 µM | [5] 24.3 µM | [6] 56.6 µM | [7] 90.4 µM | [8] > 100 µM | [9] 26.9 µM | [10] 50.7 µM | [11] 16.5 µM | [12] 47.9 µM | [13] 38.8 µM | [15] 36.8 µM | [17] 13.4 µM | [18] 20.8 µM | [19] 18.7 µM

Clc1ccc(Cc2nc3cc(Cl)ccc3o2)cc1
inactive: [1] 35.1 µM | [2] 17.4 µM | [3] 36.9 µM | [4] 41.5 µM | [5] 34.4 µM | [6] 29.7 µM | [7] 30.9 µM | [8] 36.1 µM | [9] 22.8 µM | [10] 24.8 µM | [11] 27.7 µM | [12] 31.7 µM | [13] 36.1 µM | [14] 15.7 µM | [15] 52 µM | [16] 30.1 µM | [17] 28.7 µM | [18] 30.7 µM | [19] 26.5 µM

CCCC(=O)NC(Nc1ccc(S(=O)(=O)Nc2cc(C)on2)cc1)(C(=O)OCC)C(F)(F)F (configuration not stated)
inactive: [1] > 100 µM | [2] > 100 µM | [3] > 100 µM | [4] > 100 µM | [5] > 100 µM | [6] > 100 µM | [7] > 100 µM | [8] > 100 µM | [9] > 100 µM | [10] > 100 µM | [11] > 100 µM | [12] > 100 µM | [13] > 100 µM | [14] > 100 µM | [15] > 100 µM | [16] > 100 µM | [17] > 100 µM | [18] 9.75 µM | [19] 55.3 µM

COc1ccc(N2C(=O)C3c4[nH]c5c(C)cccc5c4C4CCC(c5ccccc5)CC4C3C2=O)cc1 (configuration not stated)
inactive: [1] 13.4 µM | [2] 14 µM | [3] > 10 µM | [4] 8.57 µM | [5] 3.9 µM | [6] 12.6 µM | [20] 18.2 µM | [7] 7.55 µM | [9] 17.5 µM | [10] 26.2 µM | [11] 8.43 µM | [12] 16.3 µM | [13] 13.5 µM | [14] 24.2 µM | [15] 32.1 µM | [17] 12.3 µM | [19] 3.4 µM

O=C1OC(=O)c2cc(S(=O)(=O)c3ccc4c(c3)C(=O)OC4=O)ccc21
inactive: [1] > 100 µM | [2] > 100 µM | [3] > 100 µM | [4] > 100 µM | [5] > 100 µM | [6] > 100 µM | [7] > 100 µM | [8] 24.1 µM | [9] > 100 µM | [10] > 100 µM | [11] > 100 µM | [12] > 100 µM | [13] > 100 µM | [14] > 100 µM | [15] > 100 µM | [16] > 100 µM | [17] > 100 µM

NC(=O)C(N)CC12CC3CC(CC(C3)C1)C2 (configuration not stated)
inactive: [1] 17 µM | [3] 14.5 µM | [4] 45.6 µM | [5] 22.3 µM | [6] 20.1 µM | [7] 19.6 µM | [9] 23.3 µM | [10] 29.6 µM | [11] 17.5 µM | [12] 14 µM | [13] 13.6 µM | [14] 24.6 µM | [15] 29.6 µM | [17] 16 µM | [18] 17.2 µM | [19] 21 µM

CCOC(=O)C(=O)CC(=O)C1=C(c2ccccc2OC)CC(c2cccs2)=CC1=O
inactive: [1] 31.7 µM | [2] 45.4 µM | [3] > 100 µM | [4] 43.5 µM | [5] > 100 µM | [6] 34.3 µM | [20] > 100 µM | [7] 65.8 µM | [8] > 100 µM | [9] 18.7 µM | [10] > 100 µM | [11] 86.3 µM | [12] 93.3 µM | [13] 36.1 µM | [14] 78.9 µM | [15] > 100 µM | [16] 67.1 µM | [17] 35.9 µM | [19] 37.1 µM

NC(Cc1ccc(S(=O)(=O)O)cc1)C(=O)NC(Cc1ccc(S(=O)(=O)O)cc1)C(=O)NC(Cc1ccc(S(=O)(=O)O)cc1)C(=O)NC(Cc1ccc(S(=O)(=O)O)cc1)C(=O)O (configuration not stated)
inactive: [1] > 100 µM | [2] > 100 µM | [3] > 100 µM | [4] > 100 µM | [5] > 100 µM | [6] 3.92 µM | [20] > 100 µM | [7] > 100 µM | [8] 68.5 µM | [9] > 100 µM | [10] > 100 µM | [11] > 100 µM | [12] > 100 µM | [13] > 100 µM | [14] > 100 µM | [15] > 100 µM | [16] > 100 µM | [17] > 100 µM | [19] > 100 µM
